Test results: article PMC5309220, “Screening for Small Molecule Inhibitors of Statin-Induced APP C-terminal Toxic Fragment Production” (Frontiers in Pharmacology, 2017)
Read-outs that look alike come from different tables or passages of the source.

Assays:
[1] = test system: cerivastatin-induced APPΔC31 production in CHO-7W cells; test: APPΔC31 ELISA validation assay, cerivastatin-induced; format: cell-based, Chinese hamster; settings: 24 h; for APPΔC31 Inh. (mean %): CHO-7W cells, test concentration not given; for APPΔC31 Inh. (mean %) / inhibition of APPΔC31 production (in words): 10 μM cerivastatin; for IC50: Cricetulus griseus, (E) ELISA, cerivastatin-induced, read-out: IC50 (E), APPΔC31 inhibition; for IC50 / inhibition of APPΔC31 production (in words): CHO-7W; for inhibition of APPΔC31 production (in words): thapsigargin 0.033-0.3 μM, 2,5-Di-tert-butylhydroquinone 1 and 10 μM
Procedure: The APPΔC31 ELISA developed in partnership with Enzo Life Sciences (ADI-900-227) follows a standard sandwich ELISA design wherein a monoclonal N-terminal APP-specific antibody is used to coat the wells of the microtiter plate (capture antibody) and the anti-APPΔC31 cleavage site-specific polyclonal antibody serves as the detection antibody. An HRP-conjugated secondary antibody is then added and a colorimetric signal generated by enzymatic conversion of the tetramethylbenzidine (TMB) substrate. Protein levels were first determined using a colorimetric coomassie assay (Coomassie Plus, Thermo).
A subset of hits from our HTS was validated in a secondary assay. […] Thapsigargin also acts as a sarco/endoplasmic reticulum calcium ATPase (SERCA) inhibitor. Therefore, another SERCA inhibitor, 2,5-Di-tert-butylhydroquinone, was also added to the testing. In this secondary assay, CHO-7W cells were cultured as described above and plated into 24-well dishes at ∼200K/well. […] These hits were selected for their potency in primary screen, their structural features, their known activities, and availability of compound for additional testing. There were cerivastatin-only (negative control), + QVD-OPh (positive control), and for viability, vehicle-only (negative) controls. Cells were harvested by removing the media to a tube, adding […] trypsin to detach cells then neutralizing with media. […] Cells were centrifuged at 5000 rpm (2300 × g) for 5 min. Cell pellets were frozen until use. Forty μL cold RIPA buffer plus complete protease inhibitors (Roche) was added to each pellet and the pellets were reconstituted by pipetting up and down, incubating on ice for 30 min, vortexing, and centrifugation as above. Cell lysate supernatants were then assayed by APPΔC31 ELISA as described above. For most compounds, multiple/repeat studies were performed and two wells used for each condition. Statistical comparison was performed using one-way ANOVA for multiple comparisons, with a Dunnett post hoc test to compare each condition to the control. Further dose-response studies were performed on select compounds.

CHO-7W cells [2] = settings: with 10 μM cerivastatin
[3] = test system: cerivastatin-induced APPΔC31 in CHO-7W cells; test: APPΔC31 AlphaLISA dose-response, cerivastatin-induced; format: cell-based, Chinese hamster; settings: 24 h; for inhibition of cerivastatin-induced APPΔC31 (in words): dose-response curves; for % Min (APPΔC31 dose-response): AlphaLISA dose-response (Figure 5C), cerivastatin-stimulated
Procedure: The APPΔC31 AlphaLISA assay (Figures 2C–E) was run directly in the plate with the cell lysate as described above in “AlphaLISA to detect APPΔC31.” APPΔC31 levels were measured using the Envision plate reader and data were normalized to DMSO (100% APPΔC31 production) and Q-VD-OPh (MP Biomedicals) pan-caspase inhibitor at 30 μM (0%); these controls were present on each plate. In addition, some compounds of interest were further analyzed in a dose-response curve to determine IC50 values.
The broad-spectrum pan-caspase inhibitor Q-VD-OPh served as the positive control.
Lysates were prepared and APPΔC31 determined by ELISA. (B) CHO-7W cells were treated with 10 μM cerivastatin plus increasing doses of caspase and MEK inhibitors for 24 h. Lysates were prepared and APPΔC31 determined by AlphaLISA. Click here for additional data file.

[4] = PAMPA / immobilized artificial membrane (IAM.PC.DD2) chromatography; format: in vitro ADME
CHO-7W cells [5] = test: Total protein in CHO-7W cell lysates (Coomassie Plus); format: cell-based, Chinese hamster; settings: n = 1
Procedure: (§1) In an additional study (Supplementary Figure S5A), measurement of the α secretase fragment of full length (FL) APP – soluble APP alpha (sAPPα) – was performed using cell media by ELISA (IBL). Furthermore, in two studies (Supplementary Figures S5B,C), total protein levels in CHO-7W cell lysates were determined by Coomassie Plus protein assay (Pierce).
(§2) Supplementary file Data_Sheet_1.docx: FIGURE S5 Effect of lead compounds on protein concentration and sAPPα. […] (B) Total protein from lysates of CHO-7W cells treated with either 30 μM QVD or 10 μM Sp alone for 24 h was similar to the vehicle control (n = 1). (C) Total protein from CHO-7W lysates treated with 10 μM CS alone or in combination with QVD, Sp, or 3′F-Sp at the concentrations shown increased (n = 1). Statistical analysis was performed using one-way ANOVA and Dunnett post-test for comparison to the 10 μM CS control (^∗∗p < 0.001, ^∗∗∗p < 0.0001). Click here for additional data file.

sAPPα in CHO-7W cultures = test: sAPPα ELISA in cell media; format: cell-based, Chinese hamster; settings: QVD, Sp, 3′F-Sp at 10, 30, and 30 mM, respectively (so in the source), with 10 μM cerivastatin, 24 h, vs CS alone, n = 2
Procedure: as §1, §2

[6] = In vivo pharmacokinetic analysis of spiperone; set-up: species or system mice (C57B6)
Procedure: As PAMPA is merely a predictive analysis of brain permeability, a pharmacokinetic (PK) study with spiperone was performed. […] Another 5 mice were injected intraperitoneally (IP) at the same dose. One mouse was euthanized from each dosing route group at 1, 2, 4, 6, and 8 h. This is done by ketamine/xylazine over- anesthesia followed by blood collection for plasma isolation by cardiac puncture, and transcardial perfusion of tissue with saline to remove residual blood from the brain. Both plasma and brain tissue were sent to Integrated Analytical Solutions (IAS, Berkeley, CA, USA) for compound level analysis using an LC-MS-MS method.

[7] = test system: APPΔC31 production in CHO-7W cells; test: Statin induction of APPΔC31, ELISA; format: cell-based, Chinese hamster; settings: 24 h, statins at 1, 5 and 10 μM
Procedure: An HRP-conjugated secondary antibody is then added and a colorimetric signal generated by enzymatic conversion of the tetramethylbenzidine (TMB) substrate. Protein levels were first determined using a colorimetric coomassie assay (Coomassie Plus, Thermo).
APPΔC31 was determined in cell lysates by ELISA.

[8] = low concentrations (thapsigargin 0.033-0.3 μM, 2,5-Di-tert-butylhydroquinone 1 and 10 μM)

Structure (SMILES): CO[C@H]1C[C@@H]2CC[C@@H](C)[C@@](O)(O2)C(=O)C(=O)N2CCCC[C@H]2C(=O)O[C@H]([C@H](C)C[C@@H]2CC[C@@H](O)[C@H](OC)C2)CC(=O)[C@H](C)/C=C(\C)[C@@H](O)[C@@H](OC)C(=O)[C@H](C)C[C@H](C)/C=C/C=C/C=C/1C [Rapamycin]
- APPΔC31 Inh. (mean %) [1]: 99%
- IC50 [1]: > 10 µM
- cell survival rescue (in words) (CHO-7W cells [2]; at 30 μM, among hits from HTS): greatest cell survival rescue effects

Structure (SMILES): N#C/C(=C(/N)Sc1ccc(N)cc1)c1ccccc1C(F)(F)F [SL327]
- inhibition of cerivastatin-induced APPΔC31 (in words) ([3]; 10 μM cerivastatin, AlphaLISA): ineffective

Structure (SMILES): C/C=C(/C)C(=O)O[C@H]1C(C)=C2[C@H]([C@@H]1OC(=O)CCCCCCC)[C@@](C)(OC(C)=O)C[C@H](OC(=O)CCC)[C@@]1(O)[C@H]2OC(=O)[C@@]1(C)O [Thapsigargin]
- APPΔC31 Inh. (mean %) [1]: 97%
- inhibition of APPΔC31 production (in words) [1]: remarkably potent inhibitor
- IC50 [1]: 0.077 µM
- cell survival rescue (in words) (CHO-7W cells [2]; [8]): highest cell survival

Structure (SMILES): O=c1c(O)c(-c2ccc(O)cc2)oc2cc(O)cc(O)c12 [Kaempferol]
- APPΔC31 Inh. (mean %) [1]: 65%
- IC50 [1]: > 10 µM

Structure (SMILES): O=c1[nH]c2ccccc2n1C1CCN(CCCC(c2ccc(F)cc2)c2ccc(F)cc2)CC1 [Pimozide]
- % Min (APPΔC31 dose-response) [3]: 19%
- IC50 ([3]; Cricetulus griseus, (A) AlphaLISA, cerivastatin-induced, read-out: IC50 (A), APPΔC31 inhibition): 3.6 µM
- KIAM (IAM capacity factor) ([4]; IAM.PC.DD2 column, water/methanol gradient): 3.3
- APPΔC31 Inh. (mean %) [1]: 98%
- cell survival rescue (in words) (CHO-7W cells [2]; at 30 μM, among hits from HTS): greatest cell survival rescue effects

Structure (SMILES): CS/C(N)=C(C#N)/C(C#N)=C(\N)SC [U0124]
- inhibition of cerivastatin-induced APPΔC31 (in words) ([3]; 10 μM cerivastatin, AlphaLISA): ineffective

Structure (SMILES): Cn1cc(C2=C(c3ccc(Cl)cc3Cl)C(=O)NC2=O)c2ccccc21 [SB216763]
- APPΔC31 Inh. (mean %) [1]: 54%
- IC50 [1]: > 10 µM

Structure (SMILES): Oc1ccc(-c2nc(-c3ccncc3)c(-c3ccc(F)cc3)[nH]2)cc1 [SB202190]
- APPΔC31 Inh. (mean %) [1]: 58%
- IC50 [1]: > 10 µM

Structure (SMILES): CC/C(=C(\c1ccccc1)c1ccc(OCCN(C)C)cc1)c1ccccc1 [Tamoxifen]
- APPΔC31 Inh. (mean %) [1]: 56%

Structure (SMILES): O=C(CCCN1CCC2(CC1)C(=O)NCN2c1ccccc1)c1ccc(F)cc1 [Spiperone]
- effect on protein concentration in lysates, compound alone (in words) (CHO-7W cells [5]; QVD alone at 30 μM, spiperone alone at 10 μM, 24 h, vs vehicle): did not lower protein concentration
- effect on total protein concentration with cerivastatin (in words) (CHO-7W cells [5]; QVD, spiperone, 3′fluorobenzylspiperone at 30, 10, and 10 μM, respectively, with 10 μM cerivastatin): increased total protein concentration
- % Min (APPΔC31 dose-response) [3]: 23%
- BBB Penetration Prediction ([4]; from KIAM/MW^4 x 10^10, cut-off 0.85): high (If KIAM/MW^4x10^10 > 0.85 the BBB penetration is predicted to be high)
- cell survival rescue (in words) (CHO-7W cells [2]; at 30 μM, among hits from HTS): greatest cell survival rescue effects
- effect on sAPPα (in words) (sAPPα in CHO-7W cultures): increased sAPPα
- Kp ([6]; male, C57B6, brain and plasma, other: subcutaneous and intraperitoneal (both routes), 0.25 mg/mouse, SQ and IP routes, read-out: brain:plasma ratio): ~0.5
- Cmax ([6]; male, C57B6, brain, mouse, intraperitoneal (IP), 10 mg/kg, n = 1 per time point, read-out: peak brain level (Cmax)): ~205 ng/g
- time of peak brain level ([6]; mouse, IP injection at 10 mg/kg): 1 h
- time of peak brain level ([6]; mouse, both the subcutaneous and intraperitoneal routes): 1 h
- peak brain level ([6]; mouse, subcutaneous, 50 μL of 5 mg/mL in DMSO, n = 1 per time point): ~70 ng/g

Structure (SMILES): CC(C)c1c(C(=O)Nc2ccccc2)c(-c2ccccc2)c(-c2ccc(F)cc2)n1CC[C@@H](O)C[C@@H](O)CC(=O)O [Atorvastatin]
- induction of APPΔC31 (in words) [7]: much less effective

Structure (SMILES): CC(C)(C)c1cc(O)c(C(C)(C)C)cc1O [2,5-Di-tert-butylhydroquinone]
- inhibition of APPΔC31 production (in words) [1]: very effective
- cell survival rescue (in words) (CHO-7W cells [2]; [8]): highest cell survival

Structure (SMILES): N#CC(=C(/N)Sc1ccccc1N)/C(C#N)=C(/N)Sc1ccccc1N [U0126]
- reduction of APPΔC31 ([3]; from 10 to 50 μM, 10 μM cerivastatin, AlphaLISA): ~25%
